Measured values as given in the supplement of paper PMC4858399.
Counter-ions that a name gives are not always drawn.

How the values were obtained:
Details in all cases: exposure time 48 h
[1] = system: Caenorhabditis elegans N2; test: lowest effective concentration for larval growth inhibition (size below effect threshold); higher = less potent
Procedure, shortened: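 L1 larvae of C. elegans N2 (50 per 96-well) were grown in K-medium with killed bacteria and 1% DMSO, with the chemical at 0.5, 1, 5, 10, 50, 100 or 200 µM, for 48 h at 20°C. Per-worm extinction from the Biosort stood for size and was log-transformed into well means. For each chemical, the lowest effective concentration is the first dose where plate-adjusted mean size falls under the threshold and stays under it at the higher doses, using a threshold of 5.665.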

[2] = system: Caenorhabditis elegans N2; test: AC50 for larval growth inhibition (Hill fit); higher = less potent
Procedure, shortened: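 After 48 h at 20°C in K-medium with killed OP50, 1% DMSO and 0.5–200 µM chemical, synchronised C. elegans N2 L1 larvae (50 per well, 96-well plates) were sized individually as extinction on a COPAS Biosort. These values were log-transformed and averaged per well, and wells with fewer than 10 worms were excluded. The AC50 was derived from a constrained Hill fit by weighted genetic-algorithm regression, and out-of-range values are censored.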

[3] = system: Caenorhabditis elegans N2; test: mean nematode size ln(EXT) after 48 h, plate-adjusted (DMSO control set to 6) (ln(EXT), control-adjusted); higher = larger nematodes / less growth inhibition
Procedure, shortened: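 Worms were measured individually for extinction on the Biosort after 48 h at 20°C. They began as synchronised C. elegans N2 L1 larvae in K-medium with killed OP50, 1% DMSO and 0.5–200 µM chemical. Once debris had been removed by a growth model, values were natural-logged and averaged per well to give mean size. The plate adjustment subtracted the vehicle control mean and added 6.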

CCOP(=O)(SC(C)CC)N1CCSC1=O (configuration not stated) [Fosthiazate]
lowest effective concentration [1]: 200 µM
AC50 for larval growth inhibition [2]: 93.1 µM
mean nematode size ln(EXT) (ln) ([3]; 0.5 µM): 5.92
mean nematode size ln(EXT) (ln) ([3]; 1 µM): 5.99
mean nematode size ln(EXT) (ln) ([3]; 5 µM): 6.15
mean nematode size ln(EXT) (ln) ([3]; 10 µM): 6.12
mean nematode size ln(EXT) (ln) ([3]; 50 µM): 5.94
mean nematode size ln(EXT) (ln) ([3]; 100 µM): 5.79
mean nematode size ln(EXT) (ln) ([3]; 200 µM): 5.64

Cc1cc(C2CC2)nc(Nc2ccccc2)n1 [Cyprodinil]
lowest effective concentration [1]: 50 µM
AC50 for larval growth inhibition [2]: 132 µM
mean nematode size ln(EXT) (ln) ([3]; 0.5 µM): 5.93
mean nematode size ln(EXT) (ln) ([3]; 1 µM): 5.88
mean nematode size ln(EXT) (ln) ([3]; 5 µM): 5.96
mean nematode size ln(EXT) (ln) ([3]; 10 µM): 5.86
mean nematode size ln(EXT) (ln) ([3]; 50 µM): 5.32
mean nematode size ln(EXT) (ln) ([3]; 100 µM): 5.01
mean nematode size ln(EXT) (ln) ([3]; 200 µM): 4

NC(=O)c1nc(-c2cccc(-c3cc(F)ccc3OCC(F)(F)C(F)(F)F)c2)n[nH]1
lowest effective concentration [1]: 50 µM
AC50 for larval growth inhibition [2]: 50.6 µM
mean nematode size ln(EXT) (ln) ([3]; 0.5 µM): 5.73
mean nematode size ln(EXT) (ln) ([3]; 1 µM): 5.81
mean nematode size ln(EXT) (ln) ([3]; 5 µM): 5.71
mean nematode size ln(EXT) (ln) ([3]; 10 µM): 5.78
mean nematode size ln(EXT) (ln) ([3]; 50 µM): 5.53
mean nematode size ln(EXT) (ln) ([3]; 100 µM): 4.97
mean nematode size ln(EXT) (ln) ([3]; 200 µM): 5.09

N#Cc1c(Cl)c(Cl)c(Cl)c(C#N)c1Cl [Chlorothalonil]
lowest effective concentration [1]: 200 µM
AC50 for larval growth inhibition [2]: 193 µM
mean nematode size ln(EXT) (ln) ([3]; 0.5 µM): 5.66
mean nematode size ln(EXT) (ln) ([3]; 1 µM): 5.94
mean nematode size ln(EXT) (ln) ([3]; 5 µM): 5.95
mean nematode size ln(EXT) (ln) ([3]; 10 µM): 5.95
mean nematode size ln(EXT) (ln) ([3]; 50 µM): 5.88
mean nematode size ln(EXT) (ln) ([3]; 100 µM): 5.85
mean nematode size ln(EXT) (ln) ([3]; 200 µM): 4.4

COS(=O)(=O)OC [Dimethyl sulfate]
lowest effective concentration [1]: 100 µM
AC50 for larval growth inhibition [2]: 61.5 µM
mean nematode size ln(EXT) (ln) ([3]; 0.5 µM): 5.83
mean nematode size ln(EXT) (ln) ([3]; 1 µM): 5.97
mean nematode size ln(EXT) (ln) ([3]; 5 µM): 6.03
mean nematode size ln(EXT) (ln) ([3]; 10 µM): 5.92
mean nematode size ln(EXT) (ln) ([3]; 50 µM): 5.98
mean nematode size ln(EXT) (ln) ([3]; 100 µM): 5.28
mean nematode size ln(EXT) (ln) ([3]; 200 µM): 5.61

CNS(=O)(=O)c1cc(C(=O)N2CCC(CCN3C4CCC3CC(n3c(C)nc5ccccc53)C4)(c3cccc(F)c3)CC2)c(Cl)cc1F (configuration not stated)
lowest effective concentration [1]: 50 µM
AC50 for larval growth inhibition [2]: > 200 µM
mean nematode size ln(EXT) (ln) ([3]; 0.5 µM): 5.68
mean nematode size ln(EXT) (ln) ([3]; 1 µM): 5.79
mean nematode size ln(EXT) (ln) ([3]; 5 µM): 5.77
mean nematode size ln(EXT) (ln) ([3]; 10 µM): 5.78
mean nematode size ln(EXT) (ln) ([3]; 50 µM): 5.62
mean nematode size ln(EXT) (ln) ([3]; 100 µM): 5.38
mean nematode size ln(EXT) (ln) ([3]; 200 µM): 5.41

CCN(CC)C(=S)SSC(=S)N(CC)CC [Disulfiram]
lowest effective concentration [1]: 100 µM
AC50 for larval growth inhibition [2]: > 200 µM
mean nematode size ln(EXT) (ln) ([3]; 0.5 µM): 5.96
mean nematode size ln(EXT) (ln) ([3]; 1 µM): 6
mean nematode size ln(EXT) (ln) ([3]; 5 µM): 6.03
mean nematode size ln(EXT) (ln) ([3]; 10 µM): 5.99
mean nematode size ln(EXT) (ln) ([3]; 50 µM): 5.86
mean nematode size ln(EXT) (ln) ([3]; 100 µM): 5.59
mean nematode size ln(EXT) (ln) ([3]; 200 µM): 4.56

CC(=O)[C@H]1CC[C@H]2[C@@H]3CCC4=CC(=O)CC[C@]4(C)[C@H]3CC[C@]12C [Progesterone]
lowest effective concentration [1]: 200 µM
AC50 for larval growth inhibition [2]: > 200 µM
mean nematode size ln(EXT) (ln) ([3]; 0.5 µM): 5.84
mean nematode size ln(EXT) (ln) ([3]; 1 µM): 5.84
mean nematode size ln(EXT) (ln) ([3]; 5 µM): 5.86
mean nematode size ln(EXT) (ln) ([3]; 10 µM): 5.9
mean nematode size ln(EXT) (ln) ([3]; 50 µM): 5.72
mean nematode size ln(EXT) (ln) ([3]; 100 µM): 5.95
mean nematode size ln(EXT) (ln) ([3]; 200 µM): 5.58

Cc1cc(NC(=O)C(=O)O)cc(C)c1Oc1ccc(O)c2c1CCC2
lowest effective concentration [1]: 200 µM
AC50 for larval growth inhibition [2]: > 200 µM
mean nematode size ln(EXT) (ln) ([3]; 0.5 µM): 5.86
mean nematode size ln(EXT) (ln) ([3]; 1 µM): 5.81
mean nematode size ln(EXT) (ln) ([3]; 5 µM): 5.88
mean nematode size ln(EXT) (ln) ([3]; 10 µM): 5.83
mean nematode size ln(EXT) (ln) ([3]; 50 µM): 5.84
mean nematode size ln(EXT) (ln) ([3]; 100 µM): 5.76
mean nematode size ln(EXT) (ln) ([3]; 200 µM): 5.58

COP(=O)(OC)OC(Br)C(Cl)(Cl)Br (configuration not stated) [Naled]
lowest effective concentration [1]: 5 µM
AC50 for larval growth inhibition [2]: 95.8 µM
mean nematode size ln(EXT) (ln) ([3]; 0.5 µM): 5.83
mean nematode size ln(EXT) (ln) ([3]; 1 µM): 5.69
mean nematode size ln(EXT) (ln) ([3]; 5 µM): 5.51
mean nematode size ln(EXT) (ln) ([3]; 10 µM): 5.53
mean nematode size ln(EXT) (ln) ([3]; 50 µM): 4.87
mean nematode size ln(EXT) (ln) ([3]; 100 µM): 4.66
mean nematode size ln(EXT) (ln) ([3]; 200 µM): 3.88

COc1ccc(O)c(C(C)(C)C)c1 [2-tert-Butyl-4-methoxy-phenol]
lowest effective concentration [1]: 200 µM
AC50 for larval growth inhibition [2]: > 200 µM
mean nematode size ln(EXT) (ln) ([3]; 0.5 µM): 5.78
mean nematode size ln(EXT) (ln) ([3]; 1 µM): 5.98
mean nematode size ln(EXT) (ln) ([3]; 5 µM): 5.87
mean nematode size ln(EXT) (ln) ([3]; 10 µM): 5.84
mean nematode size ln(EXT) (ln) ([3]; 50 µM): 5.94
mean nematode size ln(EXT) (ln) ([3]; 100 µM): 5.8
mean nematode size ln(EXT) (ln) ([3]; 200 µM): 5.54

CCCCCCC(C)OC(=O)COc1nc(F)c(Cl)c(N)c1Cl (configuration not stated) [Fluroxypyr-meptyl]
lowest effective concentration [1]: 200 µM
AC50 for larval growth inhibition [2]: 185 µM
mean nematode size ln(EXT) (ln) ([3]; 0.5 µM): 5.84
mean nematode size ln(EXT) (ln) ([3]; 1 µM): 5.84
mean nematode size ln(EXT) (ln) ([3]; 5 µM): 6.02
mean nematode size ln(EXT) (ln) ([3]; 10 µM): 5.94
mean nematode size ln(EXT) (ln) ([3]; 50 µM): 5.83
mean nematode size ln(EXT) (ln) ([3]; 100 µM): 6.29
mean nematode size ln(EXT) (ln) ([3]; 200 µM): 4.64

CC[C@H]1CC[C@H](NCc2cc3c(cc2OC)[C@H]2C[C@H]2C(=O)N3C)[C@H](c2ccccc2)N1
lowest effective concentration [1]: 200 µM
AC50 for larval growth inhibition [2]: > 200 µM
mean nematode size ln(EXT) (ln) ([3]; 0.5 µM): 5.85
mean nematode size ln(EXT) (ln) ([3]; 1 µM): 5.81
mean nematode size ln(EXT) (ln) ([3]; 5 µM): 5.87
mean nematode size ln(EXT) (ln) ([3]; 10 µM): 5.86
mean nematode size ln(EXT) (ln) ([3]; 50 µM): 5.77
mean nematode size ln(EXT) (ln) ([3]; 100 µM): 5.85
mean nematode size ln(EXT) (ln) ([3]; 200 µM): 5.48
